Measured values as given in patent US20210045385A1, “PYRIDAZINONE-SUBSTITUTED KETOXIMES AS HERBICIDES” (FMC Corporation, priority 2018, published 2021).

Tests used:
Type in all cases: in vivo
[1] = tested on: Italian ryegrass (Lolium mutiflorum); test: Test C preemergence, visual plant response rating
Procedure, shortened: (§1)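 Compounds in a non-phytotoxic solvent with surfactant were applied as a directed soil spray preemergence or to 2–10 cm, one- to two-leaf plants postemergence, in loam–sand soil. After about 10 d in a greenhouse, injury was visually rated against untreated controls on a 0–100 scale (100 = complete control).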

[2] = tested on: barnyardgrass (Echinochloa crus-galli); test: Test C preemergence, visual plant response rating
Procedure, shortened: as §1

[3] = tested on: foxtail, giant (giant foxtail, Setaria faberi); test: Test C preemergence, visual plant response rating
Procedure, shortened: as §1

kochia (Bassia scoparia) [4] = test: Test C preemergence, visual plant response rating
Procedure, shortened: as §1

[5] = tested on: pigweed (Amaranthus retroflexus); test: Test C preemergence, visual plant response rating
Procedure, shortened: as §1

[6] = tested on: Italian ryegrass (Lolium mutiflorum); test: Test C postemergence, visual plant response rating
Procedure, shortened: as §1

[7] = tested on: barnyardgrass (Echinochloa crus-galli); test: Test C postemergence, visual plant response rating
Procedure, shortened: as §1

[8] = tested on: blackgrass (Alopecurus myosuroides); test: Test C postemergence, visual plant response rating
Procedure, shortened: as §1

corn (Zea mays) = test: Test C postemergence, visual plant response rating
Procedure, shortened: as §1

[9] = tested on: foxtail, giant (giant foxtail, Setaria faberi); test: Test C postemergence, visual plant response rating
Procedure, shortened: as §1

[10] = tested on: galium (catchweed bedstraw, Galium aparine); test: Test C postemergence, visual plant response rating
Procedure, shortened: as §1

kochia (Bassia scoparia) [11] = test: Test C postemergence, visual plant response rating
Procedure, shortened: as §1

[12] = tested on: pigweed (Amaranthus retroflexus); test: Test C postemergence, visual plant response rating
Procedure, shortened: as §1

[13] = tested on: ragweed (common ragweed, Ambrosia artemisiifolia); test: Test C postemergence, visual plant response rating
Procedure, shortened: as §1

[14] = tested on: wheat (Triticum aestivum); test: Test C postemergence, visual plant response rating
Procedure, shortened: as §1

[15] = tested on: barnyardgrass (Echinochloa crus-galli); test: Test D flooded paddy test, visual plant response rating; settings: 250 g ai/ha, scale 0 to 100 (0 no effect, 100 complete control), 13 to 15 d
Procedure, shortened: (§2)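 Plants were grown to the 2-leaf stage, pots flooded to 3 cm above soil, and compound applied directly into the paddy water, with the depth held throughout. After 13 to 15 d in a greenhouse, response was rated visually against untreated controls on a 0–100 scale (0 no effect, 100 complete control).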

[16] = tested on: duck salad (Heteranthera limosa); test: as above; settings: 250 g ai/ha, scale 0 to 100 (0 no effect, 100 complete control), 13 to 15 d
Procedure, shortened: as §2

rice (Oryza sativa) = test: as above; settings: 250 g ai/ha, scale 0 to 100 (0 no effect, 100 complete control), 13 to 15 d
Procedure, shortened: as §2

[17] = tested on: sedge umbrella (small-flower umbrella sedge, Cyperus difformis); test: as above; settings: 250 g ai/ha, scale 0 to 100 (0 no effect, 100 complete control), 13 to 15 d
Procedure, shortened: as §2

[18] = Test C, 31 g ai/ha, 0 is no effect, 100 is complete control
[19] = Test C, postemergence, 125 g ai/ha
[20] = Test C, 125 g ai/ha, 0 is no effect, 100 is complete control

SMILES	Ryegrass, Italian plant response rating (0 to 100 scale) [1, 18]	Barnyardgrass plant response rating (0 to 100 scale) [2, 18]	Foxtail, Giant plant response rating (0 to 100 scale) [3, 18]	Kochia plant response rating (0 to 100 scale) (kochia (Bassia scoparia) [4]; [18])	Pigweed plant response rating (0 to 100 scale) [5, 18]	Ryegrass, Italian plant response rating (0 to 100 scale) ([6]; Postemergence, 31 g ai/ha)	Ryegrass, Italian plant response rating (0 to 100 scale) [6, 19]	Barnyardgrass plant response rating (0 to 100 scale) ([7]; Postemergence, 31 g ai/ha)	Barnyardgrass plant response rating (0 to 100 scale) [7, 19]	Blackgrass plant response rating (0 to 100 scale) ([8]; Postemergence, 31 g ai/ha)	Blackgrass plant response rating (0 to 100 scale) [8, 19]	Corn plant response rating (0 to 100 scale) (corn (Zea mays); Postemergence, 31 g ai/ha)	Corn plant response rating (0 to 100 scale) (corn (Zea mays); [19])	Foxtail, Giant plant response rating (0 to 100 scale) ([9]; Postemergence, 31 g ai/ha)	Foxtail, Giant plant response rating (0 to 100 scale) [9, 19]	Galium plant response rating (0 to 100 scale) ([10]; Postemergence, 31 g ai/ha)	Galium plant response rating (0 to 100 scale) [10, 19]	Kochia plant response rating (0 to 100 scale) (kochia (Bassia scoparia) [11]; Postemergence, 31 g ai/ha)	Kochia plant response rating (0 to 100 scale) (kochia (Bassia scoparia) [11]; [19])	Pigweed plant response rating (0 to 100 scale) ([12]; Postemergence, 31 g ai/ha)	also measured
Cc1nn(C)c(=O)c(C(=NOCC2CC2)c2cc(Cl)cc(Cl)c2Cl)c1O [Compound 182]	30	0	70	0	0	70	100	50	60	10	10	0	30	70	90	70	100	10	70	10	Ryegrass, Italian plant response rating (0 to 100 scale) ([1]; 125 g ai/ha): 100; Barnyardgrass plant response rating (0 to 100 scale) ([2]; 125 g ai/ha): 90; Foxtail, Giant plant response rating (0 to 100 scale) ([3]; 125 g ai/ha): 100; Kochia plant response rating (0 to 100 scale) (kochia (Bassia scoparia) [4]; 125 g ai/ha): 0; Pigweed plant response rating (0 to 100 scale) ([5]; 125 g ai/ha): 70; Pigweed plant response rating (0 to 100 scale) [12, 19]: 50; Ragweed plant response rating (0 to 100 scale) ([13]; Postemergence, 31 g ai/ha): 40; Ragweed plant response rating (0 to 100 scale) [13, 19]: 100; Wheat plant response rating (0 to 100 scale) ([14]; Postemergence, 31 g ai/ha): 0; Wheat plant response rating (0 to 100 scale) [14, 19]: 70; Plant response rating, Barnyardgrass (Flood) [15]: 0; Plant response rating, Ducksalad (Flood) [16]: 0; Plant response rating, Rice (Flood) (rice (Oryza sativa)): 0; Plant response rating, Sedge, Umbrella (Flood) [17]: 0
CCON=C(c1cc(Cl)cc(Br)c1)c1c(O)c(C)nn(C)c1=O [Compound 181]	0	0	50	30	30	70	100	40	60	0	20	0	30	50	80	100	100	60	80	40	Ryegrass, Italian plant response rating (0 to 100 scale) ([1]; 125 g ai/ha): 90; Barnyardgrass plant response rating (0 to 100 scale) ([2]; 125 g ai/ha): 60; Foxtail, Giant plant response rating (0 to 100 scale) ([3]; 125 g ai/ha): 90; Kochia plant response rating (0 to 100 scale) (kochia (Bassia scoparia) [4]; 125 g ai/ha): 70; Pigweed plant response rating (0 to 100 scale) ([5]; 125 g ai/ha): 90; Pigweed plant response rating (0 to 100 scale) [12, 19]: 90; Ragweed plant response rating (0 to 100 scale) ([13]; Postemergence, 31 g ai/ha): 100; Ragweed plant response rating (0 to 100 scale) [13, 19]: 100; Wheat plant response rating (0 to 100 scale) ([14]; Postemergence, 31 g ai/ha): 0; Wheat plant response rating (0 to 100 scale) [14, 19]: 50; Plant response rating, Barnyardgrass (Flood) [15]: 0; Plant response rating, Ducksalad (Flood) [16]: 0; Plant response rating, Rice (Flood) (rice (Oryza sativa)): 0; Plant response rating, Sedge, Umbrella (Flood) [17]: 0
CCO/N=C(\c1cc(Cl)cc(Cl)c1Cl)c1c(O)c(C)nn(C)c1=O [Compound 186]	40	40	100	0	50	80	100	30	70	10	20	0	20	60	90	90	100	50	50	20	Ryegrass, Italian plant response rating (0 to 100 scale) ([1]; 125 g ai/ha): 100; Barnyardgrass plant response rating (0 to 100 scale) ([2]; 125 g ai/ha): 90; Foxtail, Giant plant response rating (0 to 100 scale) ([3]; 125 g ai/ha): 100; Kochia plant response rating (0 to 100 scale) (kochia (Bassia scoparia) [4]; 125 g ai/ha): 0; Pigweed plant response rating (0 to 100 scale) ([5]; 125 g ai/ha): 100; Pigweed plant response rating (0 to 100 scale) [12, 19]: 90; Ragweed plant response rating (0 to 100 scale) ([13]; Postemergence, 31 g ai/ha): 50; Ragweed plant response rating (0 to 100 scale) [13, 19]: 90; Wheat plant response rating (0 to 100 scale) ([14]; Postemergence, 31 g ai/ha): 20; Wheat plant response rating (0 to 100 scale) [14, 19]: 70; Plant response rating, Barnyardgrass (Flood) [15]: 0; Plant response rating, Ducksalad (Flood) [16]: 0; Plant response rating, Rice (Flood) (rice (Oryza sativa)): 0; Plant response rating, Sedge, Umbrella (Flood) [17]: 0
CC(C)O/N=C(/c1c(O)c(Cl)nn(C)c1=O)c1cc(Br)cc2ccccc12 [Compound 232]	0	60	70	0	70	0	0	40	90	20	50	0	10	60	80	80	100	20	50	70	Ryegrass, Italian plant response rating (0 to 100 scale) [1, 20]: 0; Barnyardgrass plant response rating (0 to 100 scale) [2, 20]: 100; Foxtail, Giant plant response rating (0 to 100 scale) [3, 20]: 100; Kochia plant response rating (0 to 100 scale) (kochia (Bassia scoparia) [4]; [20]): 10; Pigweed plant response rating (0 to 100 scale) [5, 20]: 90; Pigweed plant response rating (0 to 100 scale) [12, 19]: 90; Ragweed plant response rating (0 to 100 scale) ([13]; Postemergence, 31 g ai/ha): 100; Ragweed plant response rating (0 to 100 scale) [13, 19]: 100; Wheat plant response rating (0 to 100 scale) ([14]; Postemergence, 31 g ai/ha): 0; Wheat plant response rating (0 to 100 scale) [14, 19]: 0; Plant response rating, Barnyardgrass (Flood) [15]: 30; Plant response rating, Ducksalad (Flood) [16]: 30; Plant response rating, Rice (Flood) (rice (Oryza sativa)): 0; Plant response rating, Sedge, Umbrella (Flood) [17]: 95
